Earlier results in US20070015279A1, “Methods of Selecting Pancreatic Endocrine Cells Using Protein Synthesis Inhibitors” (AmCyte Inc., priority 2005, published 2007).
In brackets after ≈: the same amount, converted by molar mass.

Legend:
[1] = test system: RbbA; settings: control antibiotic; cited from earlier work
[2] = test system: 70S ribosome-associated ATPase activity; settings: cited from earlier work
[3] = test system: 30S ribosomal subunit; settings: 3 μg/mL; cited from earlier work
[4] = test system: cells; settings: cited from earlier work

| Structure (SMILES) | RbbA released, relative to the amount hygromycin B releases [1] | inhibition of the ATPase activity of ribosomes compared to that of hygromycin B [2] | reduction of the rate of 30S formation compared with control cells [3] | IC50, viable cell number [4] [µg/mL] |
| --- | --- | --- | --- | --- |
| [H]/N=C(/N)N[C@H]1[C@H](O)[C@@H](O)[C@H](O[C@@H]2O[C@@H](C)[C@](O)(C=O)[C@H]2O[C@@H]2O[C@@H](CO)[C@H](O)[C@@H](O)[C@@H]2NC)[C@@H](N/C(N)=N\[H])[C@@H]1O [Streptomycin, streptomycin] | about 25% | about 20% | – | – |
| NC[C@@H]1O[C@H](O[C@H]2[C@@H](O)[C@H](O[C@@H]3[C@@H](O)[C@H](N)C[C@H](N)[C@H]3O[C@H]3O[C@H](CO)[C@@H](O)[C@H](O)[C@H]3N)O[C@@H]2CO)[C@H](N)[C@@H](O)[C@@H]1O [paromomycin] | – | – | about 80% | 2 (≈ 3.25 µM) |
